Data taken from the NIST ThermoML archive (doi:10.1016/j.jct.2009.07.001).

Assay: excess molar enthalpy (molar enthalpy of mixing); xn = mol fraction of the nth substance listed
Conditions: 298.15 K, 101 kPa, Liquid, Calvet calorimetry

CCCCCCCCCCO [decan-1-ol] + CCCCOCCCC
Conditions | excess molar enthalpy [kcal/mol]
x1 = 0.0549 | 0.0829
x1 = 0.1045 | 0.13
x1 = 0.1508 | 0.159
x1 = 0.1992 | 0.18
x1 = 0.2491 | 0.194
x1 = 0.2975 | 0.204
x1 = 0.3443 | 0.207
x1 = 0.3964 | 0.208
x1 = 0.4484 | 0.214
x1 = 0.4966 | 0.199
x1 = 0.5428 | 0.186
x1 = 0.5887 | 0.175
x1 = 0.646 | 0.157
x1 = 0.6819 | 0.146
x1 = 0.7402 | 0.123
x1 = 0.7812 | 0.106
x1 = 0.8272 | 0.0825
x1 = 0.8767 | 0.0595
x1 = 0.9225 | 0.0356
